Assay results as given in patent US9688710B2, “Inhibitors of sodium glucose cotransporter 1” (LEXICON PHARMACEUTICALS, INC., priority 2012, dated 2017).

Key:
[1] = target: Human sodium/glucose co-transporter type 1 (SGLT1) (Homo sapiens (Human), UniProt P13866); assay: In vitro human SGLT1 inhibition assay (14C-AMG uptake); type: cell-based; details: HEK293 cells expressing human HA-SGLT1, 14C-AMG uptake
Experimental: Human sodium/glucose co-transporter type 1 (SGLT1; accession number NP_000334; GI: 4507031) was cloned into pIRESpuro2 vector for mammalian expression (construct: HA-SGLT1-pIRESpuro2).
HEK293 cells were transfected with the human HA-SGLT1-pIRESpuro2 vector and the bulk stable cell line was selected in presence of 0.5 μg/mL of puromycin. Human HA-SGLT1 cells were maintained in DMEM media containing 10% FBS, 1% GPS and 0.5 μg/mL of puromycin.
The HEK293 cells expressing the human HA-SGLT1 were seeded in 384 well plates (30,000 cells/well) in DMEM media containing 10% FBS, 1% GPS and 0.5 μg/mL of puromycin, then incubated overnight at 37 C, 5% CO2. Cells were then washed with uptake buffer (140 mM NaCl, 2 mM KCl, 1 mM CaCl2, 1 mM MgCl2, 10 mM HEPES, 5 mM Tris, 1 mg/mL bovine serum albumin (BSA), pH 7.3). Twenty microliters of uptake buffer with or without testing compounds were added to the cells. Then, 20 microliters of uptake buffer containing ^14C-AMG (100 nCi) were also added to cells. The cell plates were incubated at 37° C., 5% CO2 for 1-2 hours. After washing the cells with uptake buffer, scintillation fluid was added (40 microliters/well) and ^14C-AMG uptake was measured by counting radioactivity using a scintillation coulter (TopCoulter NXT; Packard Instruments).

[2] = target: Human sodium/glucose co-transporter type 2 (SGLT2) (Homo sapiens (Human), UniProt P31639); assay: In vitro human SGLT2 inhibition assay (14C-AMG uptake); type: cell-based; details: HEK293 cells expressing human HA-SGLT2, 14C-AMG uptake
Human sodium/glucose co-transporter type 2 (SGLT2), sequence (P31639 whole entry): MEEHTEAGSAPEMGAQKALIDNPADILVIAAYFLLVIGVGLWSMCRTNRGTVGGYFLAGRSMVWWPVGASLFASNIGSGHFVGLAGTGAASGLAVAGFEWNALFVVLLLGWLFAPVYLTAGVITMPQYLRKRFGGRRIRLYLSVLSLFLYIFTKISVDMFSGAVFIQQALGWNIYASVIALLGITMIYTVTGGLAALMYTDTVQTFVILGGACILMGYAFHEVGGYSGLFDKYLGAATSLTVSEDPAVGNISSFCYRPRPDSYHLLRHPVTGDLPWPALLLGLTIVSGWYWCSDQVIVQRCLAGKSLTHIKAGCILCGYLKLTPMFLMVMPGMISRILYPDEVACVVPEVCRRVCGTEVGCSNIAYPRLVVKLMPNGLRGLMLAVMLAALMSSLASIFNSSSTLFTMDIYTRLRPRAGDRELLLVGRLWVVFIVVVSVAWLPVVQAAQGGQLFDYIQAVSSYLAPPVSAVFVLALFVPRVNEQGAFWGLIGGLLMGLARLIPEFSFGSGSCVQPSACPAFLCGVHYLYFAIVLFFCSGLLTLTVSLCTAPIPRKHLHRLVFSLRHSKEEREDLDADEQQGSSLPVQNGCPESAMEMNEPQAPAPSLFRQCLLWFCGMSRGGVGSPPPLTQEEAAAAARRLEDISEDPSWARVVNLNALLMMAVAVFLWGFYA
Experimental: Human sodium/glucose co-transporter type 2 (SGLT2; accession number P31639; GI:400337) was cloned into pIRESpuro2 vector for mammalian expression (construct: HA-SGLT2-pIRESpuro2).
HEK293 cells were transfected with the human HA-SGLT2-pIRESpuro2 vector and the bulk stable cell line was selected in presence of 0.5 μg/mL of puromycin. Human HA-SGLT2 cells were maintained in DMEM media containing 10% FBS, 1% GPS and 0.5 μg/mL of puromycin.
The HEK293 cells expressing the human HA-SGLT2 were seeded in 384 well plates (30,000 cells/well) in DMEM media containing 10% FBS, 1% GPS and 0.5 μg/mL of puromycin, then incubated overnight at 37 C, 5% CO2. Cells were then washed with uptake buffer (140 mM NaCl, 2 mM KCl, 1 mM CaCl2, 1 mM MgCl2, 10 mM HEPES, 5 mM Tris, 1 mg/mL bovine serum albumin (BSA), pH 7.3). Twenty microliters of uptake buffer with or without testing compounds were added to the cells. Then, 20 microliters of uptake buffer containing ^14C-AMG (100 nCi) were added to the cells. The cell plates were incubated at 37° C., 5% CO2 for 1-2 hours. After washing the cells with uptake buffer, scintillation fluid was added (40 microliters/well) and ^14C-AMG uptake was measured by counting radioactivity using a scintillation coulter (TopCoulter NXT; Packard Instruments).

Human sodium/glucose co-transporter type 1 (SGLT1), sequence (P13866 whole entry): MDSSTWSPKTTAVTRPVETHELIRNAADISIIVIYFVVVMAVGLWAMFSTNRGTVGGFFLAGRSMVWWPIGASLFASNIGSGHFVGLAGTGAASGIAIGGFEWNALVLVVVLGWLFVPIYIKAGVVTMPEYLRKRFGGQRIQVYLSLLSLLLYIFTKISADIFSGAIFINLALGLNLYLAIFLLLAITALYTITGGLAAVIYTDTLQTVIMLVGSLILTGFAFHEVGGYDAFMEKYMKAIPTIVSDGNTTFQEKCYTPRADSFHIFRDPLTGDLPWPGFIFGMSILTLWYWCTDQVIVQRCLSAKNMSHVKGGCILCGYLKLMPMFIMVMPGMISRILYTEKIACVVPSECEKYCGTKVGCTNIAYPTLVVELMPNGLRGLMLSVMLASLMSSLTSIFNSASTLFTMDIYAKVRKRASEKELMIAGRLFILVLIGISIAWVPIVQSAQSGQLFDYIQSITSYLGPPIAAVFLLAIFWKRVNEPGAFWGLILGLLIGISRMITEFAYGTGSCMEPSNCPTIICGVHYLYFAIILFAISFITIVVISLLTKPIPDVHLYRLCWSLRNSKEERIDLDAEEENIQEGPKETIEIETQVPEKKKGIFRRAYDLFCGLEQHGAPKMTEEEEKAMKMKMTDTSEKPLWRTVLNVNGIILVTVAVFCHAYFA

| Structure (SMILES) | IC50 [1] [nM] | IC50 [2] [nM] |
| --- | --- | --- |
| CS[C@H]1O[C@@H](c2ccc(C)c(Cc3ccc(CCCCC(=O)NC(C)(C)C(N)=O)cc3)c2)[C@H](O)[C@@H](O)[C@@H]1O [N-(1-amino-2-methyl-1-oxopropan-2-yl)-5-(4-(2-methyl-5-((2S,3R,4R,5S,6R)-3,4,5-trihydroxy-6-(methylthio)tetrahydro-2H-pyran-2-yl)benzyl)phenyl)pentanamide] | < 10 | < 10 |
| CS[C@H]1OC(c2ccc(C)c(Cc3ccc(CCCCCl)cc3)c2)[C@H](O)[C@@H](O)[C@@H]1O (stereo partly drawn) [(3R,4R,5S,6R)-2-(3-(4-(4-chlorobutyl)benzyl)-4-methylphenyl)-6-(methylthio)tetrahydro-2H-pyran-3,4,5-triol] | < 10 | < 10 |
| CS[C@H]1O[C@@H](c2ccc(C)c(Cc3ccc(CCCCC(=O)NC(CO)(CO)CO)cc3)c2)[C@H](O)[C@@H](O)[C@@H]1O [N-(1,3-dihydroxy-2-(hydroxymethyl)propan-2-yl)-5-(4-(2-methyl-5-((2S,3R,4R,5S,6R)-3,4,5-trihydroxy-6-(methylthio)tetrahydro-2H-pyran-2-yl)benzyl)phenyl)pentanamide] | < 10 | < 10 |
| CS[C@H]1O[C@@H](c2ccc(C)c(Cc3ccc(OCC(=O)NC(CO)(CO)CO)cc3)c2)[C@H](O)[C@@H](O)[C@@H]1O [N-(1,3-dihydroxy-2-(hydroxymethyl)propan-2-yl)-2-(4-(2-methyl-5-((2S,3R,4R,5S,6R)-3,4,5-trihydroxy-6-(methylthio)tetrahydro-2H-pyran-2-yl)benzyl)phenoxy)acetamide] | < 100 | < 10 |

Continued, values first:

| IC50 [1] [nM] | IC50 [2] [nM] | Structure (SMILES) |
| --- | --- | --- |
| < 100 | < 10 | CS[C@H]1O[C@@H](c2ccc(C)c(Cc3ccc(OCCCC(=O)N4CCN(C)CC4)cc3)c2)[C@H](O)[C@@H](O)[C@@H]1O [4-(4-(2-methyl-5-((2S,3R,4R,5S,6R)-3,4,5-trihydroxy-6-(methylthio)tetrahydro-2H-pyran-2-yl)benzyl)phenoxy)-1-(4-methylpiperazin-1-yl)butan-1-one] |
| < 100 | < 10 | CS[C@H]1O[C@@H](c2ccc(Cl)c(Cc3ccc(OCCCC(=O)N[C@@H](CO)C(N)=O)cc3)c2)[C@H](O)[C@@H](O)[C@@H]1O [N-((S)-1-amino-3-hydroxy-1-oxopropan-2-yl)-4-(4-(2-chloro-5-((2S,3R,4R,5S,6R)-3,4,5-trihydroxy-6-(methylthio)tetrahydro-2H-pyran-2-yl)benzyl)phenoxy)butanamide] |
| < 10 | < 10 | CCC(=O)NCCCCc1ccc(Cc2cc([C@@H]3O[C@H](SC)[C@@H](O)[C@H](O)[C@H]3O)ccc2C)cc1 [N-(4-(4-(2-methyl-5-((2S,3R,4R,5S,6R)-3,4,5-trihydroxy-6-(methylthio)tetrahydro-2H-pyran-2-yl)benzyl)phenyl)butyl)propionamide] |
| < 10 | < 10 | CS[C@H]1O[C@@H](c2ccc(C)c(Cc3ccc(CCCCNC(=O)NC(CO)(CO)CO)cc3)c2)[C@H](O)[C@@H](O)[C@@H]1O [1-(1,3-dihydroxy-2-(hydroxymethyl)propan-2-yl)-3-(4-(4-(2-methyl-5-((2S,3R,4R,5S,6R)-3,4,5-trihydroxy-6-(methylthio)tetrahydro-2H-pyran-2-yl)benzyl)phenyl)butyl)urea] |
| < 10 | < 10 | CS[C@H]1O[C@@H](c2ccc(C)c(Cc3ccc(OCCCC(=O)NC(C)(C)C(=O)N4CCC(C)CC4)cc3)c2)[C@H](O)[C@@H](O)[C@@H]1O [N-(2-methyl-1-(4-methylpiperidin-1-yl)-1-oxopropan-2-yl)-4-(4-(2-methyl-5-((2S,3R,4R,5S,6R)-3,4,5-trihydroxy-6-(methylthio)tetrahydro-2H-pyran-2-yl)benzyl)phenoxy)butanamide] |
| < 100 | < 10 | CS[C@H]1O[C@@H](c2ccc(Cl)c(Cc3ccc(OCC(=O)NC(CO)(CO)CO)cc3)c2)[C@H](O)[C@@H](O)[C@@H]1O [2-(4-(2-chloro-5-((2S,3R,4R,5S,6R)-3,4,5-trihydroxy-6-(methylthio)tetrahydro-2H-pyran-2-yl)benzyl)phenoxy)-N-(1,3-dihydroxy-2-(hydroxymethyl)propan-2-yl)acetamide] |
